Data reported in patent US12403104B2, “Compounds and methods of promoting myelination” (Case Western Reserve University, priority 2016, dated 2025).
Where “and” joins values, the source holds several entries; their conditions need not be identical. Identical values can stand only once. Counter-ions that a name gives are not always drawn. Like-named read-outs stand apart in the source and are kept apart here.

Key:
[1] = molecular target: T1, rat CYP51 (Rattus norvegicus, UniProt Q64654); experiment: CYP51 enzymatic assay (LC/MS quantitation of FF-MAS); format: biochemical
T1 construct: purchased Cypex, Inc
T1 sequence (Q64654 1-503): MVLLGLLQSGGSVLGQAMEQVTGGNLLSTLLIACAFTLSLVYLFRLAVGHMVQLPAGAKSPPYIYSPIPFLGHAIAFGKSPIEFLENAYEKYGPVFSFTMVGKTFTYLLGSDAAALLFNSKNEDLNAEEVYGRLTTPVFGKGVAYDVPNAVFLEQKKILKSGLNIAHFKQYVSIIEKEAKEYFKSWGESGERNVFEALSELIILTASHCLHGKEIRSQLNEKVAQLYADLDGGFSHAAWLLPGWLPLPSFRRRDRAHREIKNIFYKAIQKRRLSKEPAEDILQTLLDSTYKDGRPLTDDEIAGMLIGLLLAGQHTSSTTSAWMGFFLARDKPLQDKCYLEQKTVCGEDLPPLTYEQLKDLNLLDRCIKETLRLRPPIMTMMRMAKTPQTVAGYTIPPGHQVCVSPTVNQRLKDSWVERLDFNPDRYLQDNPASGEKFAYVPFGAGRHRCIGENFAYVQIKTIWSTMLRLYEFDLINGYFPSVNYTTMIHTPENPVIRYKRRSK
Procedure: Finally, 15 μl of each reaction/isopropanol mixture was injected onto a SCIEX Triple Quad 6500 LC-MS/MS system using an APCI ion source in positive ion mode with a Shimadzu UFLC-20AD HPLC and a Phenomenex

[2] = test system: mouse epiblast stem cell-derived OPCs; experiment: In vitro phenotypic screening of OPCs (MBP+ oligodendrocytes at 72 h); format: cell-based
Procedure: Then, 40,000 cells were seeded per well in differentiation medium and allowed to attach for 30 min before addition of drug. […] Sterols were added to cells as an ethanol solution (0.2% final ethanol concentration). […] Cells were incubated under standard conditions (37° C., 5% CO2) for 3 days and fixed with 4% paraformaldehyde (PFA) in phosphate buffered saline (PBS) for 20 min. Fixed plates were washed with PBS (200 μL per well) twice, permeabilized with 0.1% Triton X-100 and blocked with 10% donkey serum (v/v) in PBS for 40 min. […] Nuclei were visualized by DAPI staining (Sigma; 1 μg/ml).

[3] = test system: OPCs (OPC-1 derivation); experiment: High-throughput screening of 3,000 bioactive small molecules for MBP+ oligodendrocyte formation; details: 2 μM, 72 h; for % Oligos: MBP+; for fold-change in % MBP + oligodendrocytes: relative to DMSO controls of the same plate
Text: Plates were imaged on the Operetta High Content Imaging and Analysis system (PerkinElmer) and a set of 6 fields captured from each well resulting in an average of 1200 cells being scored per well. Analysis (PerkinElmer Harmony and Columbus software) began by identifying intact nuclei stained by DAPI; that is, those traced nuclei that were larger than 300 μm^2 in surface area. Each traced nucleus region was then expanded by 50% and cross-referenced with the […] (MBP) stain to identify oligodendrocyte nuclei, and from this the percentage of oligodendrocytes was calculated. In some experiments, the total process length of MBP+ oligodendrocytes was calculated as previously described.
EpiSC-derived OPCs were grown and expanded in poly-ornithine and laminin-coated flasks before harvesting for plating. Cells were dispensed in differentiation media supplemented with Noggin (R&D Systems; 100 ng/ml), Neurotrophin 3 (R&D Systems; 10 ng/ml), cAMP (Sigma; 50 μM), and IGF-1 (R&D Systems; 100 ng/ml)) using a Biotek EL406 Microplate Washer Dispenser (Biotek) equipped with 5 μL dispense cassette (Biotek), into poly-D-lysine/laminin (Sigma, L2020; 4 μg/ml)-coated sterile, 384-well, CellCarrier ultra plates (PerkinElmer), to a final density of 12,500 cells per well and allowed to attach for 45 min before addition of drug. A 3 mM stock of bioactive compound library in dimethylsulphoxide (DMSO) were prepared in an Abgene storage 384-well plate (ThermoFisher Scientific; AB1055). These were added to assay plates using a 50 nL solid pin tool attached to Janus automated workstation (Perkin Elmer), resulting in a final screening concentration of 2 μM. Cells were incubated at 37° C. for 1 hour and then T3 (Sigma; 40 ng/ml) was added to all wells except negative controls, to which FGF (20 ng/ml) was added instead. Negative controls and T3-alone were included in each assay plate. After incubation at 37° C. for 72 h, cells were fixed, washed and stained similar to 96-well OPC assay protocol, although all the washing steps were performed using a Biotek EL406 Microplate Washer Dispenser (Biotek) equipped with a 96-well aspiration manifold. Cells were stained with DAPI (Sigma; 1 μg/ml) and MBP antibody (Abeam, ab7349; 1:100). Plates were imaged on the Operetta High Content Imaging and Analysis system (PerkinElmer) and a set of 4 fields captured from each well resulting in an average of 700 cells being scored per well. Analysis was performed as in High-Content Imaging and Analysis, above. All plates for the primary screen were processed and analyzed simultaneously to minimize variability. Molecules causing more than 20% reduction in nuclear count relative to DMSO control wells were removed from consideration, and hits were called on the basis of largest fold-increase in percentage of MBP+ oligodendrocytes relative to DMSO controls within the same plate.

[4] = test system: OPCs; experiment: GC/MS-based sterol profiling in OPCs; format: cell-based, mouse; details: for sterol levels / sterol intermediate accumulation in OPCs: 24 h treatment (siRNA 96 h)
[5] = molecular target: T2, EBP (Mus musculus, UniProt P70245); experiment: EBP enzymatic assay (GC/MS); format: biochemical; details: 10 μM, zymostenol 25 μM
T2 construct: active EBP was obtained from mouse microsomes; from tissue
T2 sequence (P70245 1-230): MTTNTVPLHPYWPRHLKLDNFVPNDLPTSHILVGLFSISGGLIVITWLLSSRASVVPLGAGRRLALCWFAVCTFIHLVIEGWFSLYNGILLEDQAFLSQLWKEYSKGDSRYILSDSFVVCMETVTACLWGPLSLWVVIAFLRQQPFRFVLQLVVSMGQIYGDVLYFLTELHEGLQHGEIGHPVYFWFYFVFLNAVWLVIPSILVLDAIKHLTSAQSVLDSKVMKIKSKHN

[6] = test system: T47D cells; details: 5 days
[7] = listed as Raloxifene hydrochloride, HCl

In the case of CC(=O)N1CCN(c2ccc(OC[C@@H]3CO[C@](Cn4ccnc4)(c4ccc(Cl)cc4Cl)O3)cc2)CC1 (stereo in doubt) [R-trans-Ketoconazole], the “inhibition of mammalian CYP51 in vitro” value [1] is reported as “strikingly less effective at inhibiting mammalian CYP51”.
CC(=O)N1CCN(c2ccc(OC[C@H]3CO[C@@](Cn4ccnc4)(c4ccc(Cl)cc4Cl)O3)cc2)CC1 (stereo in doubt) [S-trans-Ketoconazole] was tested, and the “inhibition of mammalian CYP51 in vitro” value [1] was “strikingly less effective at inhibiting mammalian CYP51”.
In the case of CC(C)CCC[C@@H](C)[C@H]1CC=C2C3=C(CC[C@@]21C)[C@@]1(C)CCC(O)CC1CC3 (stereo partly drawn) [14-dehydrozymostenol, cholesta-8,14-dien-β-ol], the “formation of MBP+ oligodendrocytes from OPCs” value (from here on “formation”) [2] is reported as “enhanced the formation of MBP+ oligodendrocytes”.
Clc1ccccc1C(c1ccccc1)(c1ccccc1)n1ccnc1 [Clotrimazole] was tested, and the “% Oligos” value [3] was 34.36% and 27.93% and the “fold-change in % MBP + oligodendrocytes” value [3] was 5.88.
For C[C@]12CC[C@@H]3c4ccc(O)cc4C[C@@H](CCCCCCCCC[S+]([O-])CCCC(F)(F)C(F)(F)F)[C@H]3[C@@H]1CC[C@@H]2O (stereo partly drawn) [Fulvestrant], the “cholesterol pathway enzyme inhibited in OPCs (from sterol profile)” value (“cholesterol pathway enzyme inhibited” below) ([4]; GC/MS, 24 h) was “targeted CYP51”.
In the case of Cl.O[Si](CCCN1CCCCC1)(c1ccc(F)cc1)C1CCCCC1 (stereo not drawn) [Hexahydro-sila-difenidol hydrochloride, p-fluoro analog], the “% Oligos” value [3] is reported as 26.76%.
For Cl.Cl.OCCOCCN1CCN(C(c2ccccc2)c2ccc(Cl)cc2)CC1 (stereo not drawn) [Hydroxyzine 2HCl], the “cell viability (% relative to DMSO)” value [3] was 134.19%, the “% Oligos” value [3] was 40.63% and the “fold-change in % MBP + oligodendrocytes” value [3] was 4.80.
Clc1ccc(C(Cn2ccnc2)OCc2c(Cl)cccc2Cl)c(Cl)c1 (stereo not drawn) [Isoconazole nitrate] was tested, and the “% Oligos” value [3] was 53.25%.
With Cl.Clc1ccc(N2CCN(Cc3c[nH]c4ncccc34)CC2)cc1 [L-745,870 hydrochloride] the “% Oligos” value [3] was 32.61%.
O=C(c1ccc(OCCN2CCCCC2)cc1)c1c(-c2ccc(O)cc2)sc2cc(O)ccc12 [Raloxifene HCl] was tested, and the “% Oligos” value ([3]; HCl) was 35.01%, the “% Oligos” value [3, 7] was 33.33% and the “fold-change in % MBP + oligodendrocytes” value [3, 7] was 3.77.
In the case of Cc1cc(NC(=O)Nc2ccc(N(C)C)cc2)c2cc(F)cc(F)c2n1 [SB408124], the “cell viability (% relative to DMSO)” value [3] is reported as 106.19% and the “% Oligos” value [3] is reported as 39.63%.
In the case of COc1ccc(S(=O)(=O)N2CCC(N3CCC(C)CC3)CC2)cc1 [TASIN-1, Tasin-1], the “inhibition of EBP enzymatic activity” value [5] is reported as “clear inhibition” and the “formation” value [2] is reported as “enhanced formation of MBP+ oligodendrocytes”.
With CCN(CC)CCCCCCCCOC(=O)c1cc(OC)c(OC)c(OC)c1.Cl [TMB-8 hydrochloride] the “cell viability (% relative to DMSO)” value [3] was 139.42% and the “% Oligos” value [3] was 18.47%.
CCC(C)(C)c1ccc(CC(C)CN2C[C@@H](C)O[C@@H](C)C2)cc1 (stereo partly drawn) [amorolfine, Amorolfine] was tested, and the “formation” value [2] was “enhanced formation of MBP+ oligodendrocytes”.
CN1[C@@H]2CC[C@H]1C[C@@H](OC(c1ccccc1)c1ccccc1)C2 [benztropine, Benztropine] was tested, and the “sterol levels / sterol intermediate accumulation in OPCs” value ([4]; GC/MS) was “induced accumulation of zymostenol and zymosterol and decreased basal sterol levels” and the “inhibition of EBP enzymatic activity” value [5] was “clear inhibition”.
In the case of C=C(c1ccc(C(=O)O)cc1)c1cc2c(cc1C)C(C)(C)CCC2(C)C [bexarotene, Bexarotene], the “sterol levels / sterol intermediate accumulation in OPCs” value ([4]; GC/MS) is reported as “minimal effects on sterol levels”.
For CC(C)CCC[C@@H](C)[C@H]1CC[C@H]2[C@@H]3CC=C4C[C@@H](O)CC[C@]4(C)[C@H]3CC[C@]12C [cholesterol, Cholesterol], the “formation” value [2] was “ineffective”.
CN1CCC[C@@H]1CCO[C@](C)(c1ccccc1)c1ccc(Cl)cc1 [clemastine, Clemastine] was tested, and the “sterol levels / sterol intermediate accumulation in OPCs” value ([4]; GC/MS) was “induced accumulation of zymostenol and zymosterol and decreased basal sterol levels”.
With OC(Cn1cncn1)(Cn1cncn1)c1ccc(F)cc1F [fluconazole, Fluconazole] the “inhibition of mammalian CYP51 in vitro” value [1] was “did not inhibit mammalian CYP51 in vitro”.
In the case of OCCOCCN1CCN(C(c2ccccc2)c2ccc(Cl)cc2)CC1 (stereo not drawn) [hydroxyzine, Hydroxyzine], the “inhibition of EBP enzymatic activity” value [5] is reported as “directly inhibiting EBP enzymatic activity”.
With CC(C)=CCC[C@@H](C)[C@H]1CC[C@@]2(C)C3=C(CC[C@]12C)[C@@]1(C)CC[C@H](O)C(C)(C)[C@@H]1CC3 [lanosterol, Lanosterol] the “formation” value [2] was “enhanced formation of MBP+ oligodendrocytes in a dose-responsive fashion”.
N[C@@H](Cc1cc(I)c(Oc2ccc(O)c(I)c2)c(I)c1)C(=O)O [liothyronine, Liothyronine] was tested, and the “sterol levels / sterol intermediate accumulation in OPCs” value ([4]; GC/MS) was “minimal effects on sterol levels”.
With OCCOc1ccc(/C(=C(/CCCl)c2ccccc2)c2ccccc2)cc1 [ospemifene, Ospemifene] the “cholesterol pathway enzyme inhibited” value [4] was “did not inhibit EBP in OPCs”, the “antiestrogen effects on estrogen-dependent growth” value [6] was “comparable antiestrogen effects” and the “formation” value [2] was “did not enhance differentiation to MBP+ oligodendrocytes”.
In the case of CN(C)CCOc1ccc(/C(=C(/CCCl)c2ccccc2)c2ccccc2)cc1 [toremifene, Toremifene], the “cholesterol pathway enzyme inhibited” value ([4]; GC/MS, 24 h) is reported as “inhibited EBP”, the “antiestrogen effects on estrogen-dependent growth” value [6] is reported as “comparable antiestrogen effects” and the “formation” value [2] is reported as “enhanced MBP+ oligodendrocyte generation over a wide dose range”.
CC(C)CCC[C@@H](C)[C@H]1CC[C@H]2C3=C(CC[C@]12C)[C@@]1(C)CC[C@H](O)C[C@@H]1CC3 [zymostenol, Zymostenol] was tested, and the “formation” value [2] was “enhanced the formation of MBP+ oligodendrocytes”.
(±)-Vesamicol was tested, and the “cell viability (% relative to DMSO)” value [3] was 112.02% and the “% Oligos” value [3] was 34.23%.
With Ifenprodil Tartrate the “cell viability (% relative to DMSO)” value [3] was 103.79%, the “% Oligos” value [3] was 41.41% and the “% Oligos” value ([3]; listed as ifenprodil tartrate) was 33.69%. The “fold-change in % MBP + oligodendrocytes” value [3] was 4.89, the “fold-change in % MBP + oligodendrocytes” value ([3]; listed as ifenprodil tartrate) was 3.61 and the “cell viability (% relative to DMSO)” value ([3]; listed as ifenprodil tartrate) was 106.02%.
For Varenicline tartrate, the “cell viability (% relative to DMSO)” value [3] was 144.02% and the “% Oligos” value [3] was 22.86%.
